Structures can show the parent of a compound that is named as a salt. Where two headings read alike, the source gives them in different places.
Experiments:
CYP3A4 [1] = target: T1, CYP3A4 (Homo sapiens, UniProt P08684); test: biochemical; conditions: for AC50: CYP3A4 AC50 (half-maximal activity concentration)
human CYP1A2 [2] = target: T2, human CYP1A2 (Homo sapiens, UniProt P05177); test: biochemical; conditions: for AC50: CYP1A2 AC50 (half-maximal activity concentration)
T2 sequence (P05177 1-516): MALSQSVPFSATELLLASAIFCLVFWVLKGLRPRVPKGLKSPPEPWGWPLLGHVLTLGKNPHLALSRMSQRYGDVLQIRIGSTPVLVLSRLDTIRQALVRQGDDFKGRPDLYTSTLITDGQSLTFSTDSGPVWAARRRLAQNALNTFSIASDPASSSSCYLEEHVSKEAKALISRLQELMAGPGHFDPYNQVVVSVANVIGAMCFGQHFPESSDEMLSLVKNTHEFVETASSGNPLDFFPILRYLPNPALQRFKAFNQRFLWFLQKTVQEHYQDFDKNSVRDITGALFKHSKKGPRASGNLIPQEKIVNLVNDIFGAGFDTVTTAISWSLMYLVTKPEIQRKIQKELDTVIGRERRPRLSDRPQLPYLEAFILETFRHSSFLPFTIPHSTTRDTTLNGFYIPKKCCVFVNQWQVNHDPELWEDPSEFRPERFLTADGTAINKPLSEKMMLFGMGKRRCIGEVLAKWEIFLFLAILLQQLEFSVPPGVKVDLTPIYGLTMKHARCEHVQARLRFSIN

[3] = target: Photinus pyralis (firefly) luciferase (Photinus pyralis, UniProt P08659); test: biochemical; format: biochemical
human CYP2D6 [4] = target: T3, human CYP2D6 (Homo sapiens, UniProt P10635); test: biochemical; conditions: for AC50: CYP2D6 AC50 (half-maximal activity concentration)
human CYP2C9 [5] = target: T4, human CYP2C9 (Homo sapiens, UniProt P11712); test: biochemical; conditions: for AC50: CYP2C9 AC50 (half-maximal activity concentration)
CYP3A4 [6] = target: T1, CYP3A4
human CYP2C19 [7] = target: T5, human CYP2C19 (Homo sapiens, UniProt P33261); test: biochemical; conditions: for AC50: CYP2C19 AC50 (half-maximal activity concentration)
human CYP2C9 [8] = target: T4, human CYP2C9
human CYP2D6 [9] = target: T3, human CYP2D6; conditions: for CYP2D6 Efficacy: 1 h
human CYP1A2 [10] = target: T2, human CYP1A2
human CYP2C19 [11] = target: T5, human CYP2C19
[12] = CYP1A2 IC50 (half-maximal inhibitory concentration)
[13] = CYP2D6 IC50 (half-maximal inhibitory concentration)
[14] = CYP2C9 IC50 (half-maximal inhibitory concentration)
[15] = CYP2C19 IC50 (half-maximal inhibitory concentration)
[16] = CYP3A4 IC50 (half-maximal inhibitory concentration)

T5 sequence (P33261 whole entry): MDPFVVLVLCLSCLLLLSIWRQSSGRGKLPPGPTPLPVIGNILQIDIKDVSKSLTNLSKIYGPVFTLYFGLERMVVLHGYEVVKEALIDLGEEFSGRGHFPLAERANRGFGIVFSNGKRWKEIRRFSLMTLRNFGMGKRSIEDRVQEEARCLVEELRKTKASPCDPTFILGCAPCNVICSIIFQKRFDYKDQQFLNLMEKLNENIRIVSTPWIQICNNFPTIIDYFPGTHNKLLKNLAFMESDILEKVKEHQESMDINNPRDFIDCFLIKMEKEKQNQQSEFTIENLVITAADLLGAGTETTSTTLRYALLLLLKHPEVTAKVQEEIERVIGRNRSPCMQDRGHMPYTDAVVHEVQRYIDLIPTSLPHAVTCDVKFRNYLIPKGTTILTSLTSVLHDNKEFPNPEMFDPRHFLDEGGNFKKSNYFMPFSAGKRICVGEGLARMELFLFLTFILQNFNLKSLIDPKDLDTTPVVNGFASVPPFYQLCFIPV
T3 sequence (P10635 whole entry): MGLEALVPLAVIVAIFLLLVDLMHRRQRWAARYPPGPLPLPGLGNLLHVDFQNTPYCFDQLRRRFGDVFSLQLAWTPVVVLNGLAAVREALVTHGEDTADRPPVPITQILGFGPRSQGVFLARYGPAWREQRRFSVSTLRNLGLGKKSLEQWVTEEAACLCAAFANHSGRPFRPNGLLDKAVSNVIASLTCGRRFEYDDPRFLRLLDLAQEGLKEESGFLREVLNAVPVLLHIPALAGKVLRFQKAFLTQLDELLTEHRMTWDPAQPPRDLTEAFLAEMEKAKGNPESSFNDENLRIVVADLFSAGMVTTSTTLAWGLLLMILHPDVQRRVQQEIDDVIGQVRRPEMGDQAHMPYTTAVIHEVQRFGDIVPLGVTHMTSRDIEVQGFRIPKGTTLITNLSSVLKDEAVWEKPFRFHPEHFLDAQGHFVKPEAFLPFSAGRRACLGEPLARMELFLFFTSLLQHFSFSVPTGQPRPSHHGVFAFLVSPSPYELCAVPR
T4 sequence (P11712 whole entry): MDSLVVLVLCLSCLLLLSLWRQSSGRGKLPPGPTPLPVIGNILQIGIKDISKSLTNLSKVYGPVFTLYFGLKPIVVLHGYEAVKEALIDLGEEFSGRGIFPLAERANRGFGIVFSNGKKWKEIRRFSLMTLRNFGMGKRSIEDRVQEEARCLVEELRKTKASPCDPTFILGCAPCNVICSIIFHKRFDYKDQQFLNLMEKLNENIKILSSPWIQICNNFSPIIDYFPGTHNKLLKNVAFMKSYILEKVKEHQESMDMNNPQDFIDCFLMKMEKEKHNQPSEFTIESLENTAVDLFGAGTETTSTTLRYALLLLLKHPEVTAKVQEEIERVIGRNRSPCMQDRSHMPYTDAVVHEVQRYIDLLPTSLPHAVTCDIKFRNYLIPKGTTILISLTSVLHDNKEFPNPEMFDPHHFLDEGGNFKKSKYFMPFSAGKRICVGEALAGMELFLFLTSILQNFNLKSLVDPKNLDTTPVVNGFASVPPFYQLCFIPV
T1 sequence (P08684 whole entry): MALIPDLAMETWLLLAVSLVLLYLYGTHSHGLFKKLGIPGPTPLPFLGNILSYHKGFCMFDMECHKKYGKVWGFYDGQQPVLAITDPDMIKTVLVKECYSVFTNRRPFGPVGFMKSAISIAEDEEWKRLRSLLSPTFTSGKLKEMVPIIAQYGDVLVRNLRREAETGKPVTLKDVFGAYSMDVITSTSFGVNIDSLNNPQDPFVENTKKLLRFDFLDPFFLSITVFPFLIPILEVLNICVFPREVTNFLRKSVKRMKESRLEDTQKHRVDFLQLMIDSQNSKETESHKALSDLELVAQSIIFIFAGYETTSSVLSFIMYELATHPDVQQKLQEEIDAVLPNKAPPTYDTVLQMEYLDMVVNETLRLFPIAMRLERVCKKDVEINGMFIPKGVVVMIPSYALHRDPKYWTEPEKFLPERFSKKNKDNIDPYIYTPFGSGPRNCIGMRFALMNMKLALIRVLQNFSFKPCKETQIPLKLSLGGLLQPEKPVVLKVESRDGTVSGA
Photinus pyralis (firefly) luciferase, sequence (P08659 whole entry): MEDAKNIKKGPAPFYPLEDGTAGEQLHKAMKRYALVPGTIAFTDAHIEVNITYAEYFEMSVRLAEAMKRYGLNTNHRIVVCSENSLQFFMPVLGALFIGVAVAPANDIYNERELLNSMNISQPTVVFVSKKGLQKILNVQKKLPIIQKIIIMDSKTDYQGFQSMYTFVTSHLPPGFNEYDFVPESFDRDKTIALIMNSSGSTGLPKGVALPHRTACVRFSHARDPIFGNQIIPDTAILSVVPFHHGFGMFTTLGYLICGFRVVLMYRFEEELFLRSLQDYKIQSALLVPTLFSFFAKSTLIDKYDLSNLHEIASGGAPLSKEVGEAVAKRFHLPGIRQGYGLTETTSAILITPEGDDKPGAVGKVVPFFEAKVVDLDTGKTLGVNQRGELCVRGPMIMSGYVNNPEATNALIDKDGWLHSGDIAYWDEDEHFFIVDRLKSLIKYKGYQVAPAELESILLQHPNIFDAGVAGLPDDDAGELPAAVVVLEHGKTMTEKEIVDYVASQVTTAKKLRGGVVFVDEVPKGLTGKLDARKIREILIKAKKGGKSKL

Structure (SMILES)	AC50 (CYP3A4 [1]) [µM]	AC50 (human CYP1A2 [2]) [µM]	IC50 (human CYP1A2 [2]; [12]) [µM]	AC50 (human CYP2D6 [4]) [µM]	IC50 (human CYP2D6 [4]; [13]) [µM]	AC50 (human CYP2C9 [5]) [µM]	CYP3A4 IC50 (half-maximal inhibitory concentration) (CYP3A4 [6])	AC50 (human CYP2C19 [7]) [µM]	IC50 (human CYP2C19 [7]; [15]) [µM]	Luciferase IC50 (half-maximal inhibitory concentration) [3]	IC50 (human CYP2D6 [4]) [µM]	IC50 (human CYP2C9 [5]) [µM]	other results
Cc1ccc2c(c1N)C(=O)c1ccccc1C2=O [1-Amino-2-methylanthraquinone]	0.32	0.58	0.58	5.59	5.59	3.36	0.32 ± 0.14 (91 ± 19) µM	5.66	5.66				IC50 [3]: 5.87 µM; IC50 (human CYP2C9 [5]; [14]): 3.36 µM
C=CCOc1cc(Cl)ccc1C(=O)NCCN(CC)CC [Alloclamide]										Inactive	0.28		IC50 (CYP3A4 [1]): 16.8 µM; CYP2C9 IC50 (half-maximal inhibitory concentration) (human CYP2C9 [8]): Inactive; IC50 (human CYP1A2 [2]): 3.34 µM; IC50 (human CYP2C19 [7]): 26.8 µM
CN(C)c1ccc(C(=N)c2ccc(N(C)C)cc2)cc1 [Auramine hydrochloride]			25.3		0.08				21	Inactive			IC50 (CYP3A4 [1]; [16]): 39.3 µM; CYP2C9 IC50 (half-maximal inhibitory concentration) (human CYP2C9 [8]): Inactive
CC(O)(c1ccc(Cl)cc1)c1ccc(Cl)cc1 [Chlorfenethol]	11.8	30.6	30.6	55.5	55.5	7.68	11.76 ± 1.5 (55 ± 6) µM	0.12	0.12	Inactive			IC50 (human CYP2C9 [5]; [14]): 7.68 µM
CCOP(=O)(OCC)OC(=CCl)c1ccc(Cl)cc1Cl [Chlorfenvinphos]	1.18	6.58	6.58	37		31.9	1.18 ± 0.21 (70 ± 1) µM	0.83	0.83	Inactive	37	31.9	IC50 (human CYP2C19 [7]; IC50 CYP2C19 assay): 0.77 µM
CCOC(=O)C(O)(c1ccc(Cl)cc1)c1ccc(Cl)cc1 [Chlorobenzilate]	9.23	44.5	44.5			7.68	9.23 ± 2.97 (118 ± 20) µM	0.39	0.39	Inactive	46.2	7.68	CYP2D6 AC50 (half-maximal activity concentration) (human CYP2D6 [9]): Inconclusive inhibitor
CN1CCc2cc(Cl)c(O)cc2[C@H]2c3ccccc3CC[C@@H]21 [Ecopipam]	1.89			0.01									CYP1A2 IC50 (human CYP1A2 [10]): Inactive; CYP2C9 IC50 (human CYP2C9 [8]): Inactive; Luciferase IC50 [3]: Inactive; IC50 (human CYP2D6 [4]; CYP2D6 IC50): 0.01 µM; CYP2C19 IC50 (human CYP2C19 [11]): Inactive; CYP3A4 IC50 (CYP3A4 [6]): 1.89 ± 0.26 (95 ± 11) µM
CC(CCc1ccccc1)NCC(O)c1ccc(O)c(C(N)=O)c1 (centres unmarked) [Labetalol hydrochloride]	34.8			0.62	0.62		34.77 ± 1.39 (96 ± 9) µM			Inactive			CYP1A2 IC50 (half-maximal inhibitory concentration) (human CYP1A2 [10]): Inactive; CYP2C9 IC50 (half-maximal inhibitory concentration) (human CYP2C9 [8]): Inactive
CCCCC(CC)CN1C(=O)C2C3C=CC(C3)C2C1=O (centres unmarked) [MGK-264]											31.4	10.1	IC50 (CYP3A4 [1]): 0.86 µM; CYP2D6 Efficacy (human CYP2D6 [9]; human): 31.36 ± 8.74 (-86 ± 27) %; IC50 (human CYP1A2 [2]): 18.6 µM; Luciferase IC50 [3]: Inactive; IC50 (human CYP2C19 [7]): 4.9 µM
CC1(C)CCC(Cc2ccc(Cl)cc2)C1(O)Cn1cncn1 (centres unmarked) [Metconazole]					41.9				0.17	Inactive			IC50 (CYP3A4 [1]; [16]): 0.06 µM; CYP2D6 Efficacy (in parenthesis) (human CYP2D6 [9]; human): 41.91 ± 7.54 (-75 ± 4) %; CYP2C9 Efficacy (in parenthesis) (human CYP2C9 [8]; human): 0.23 ± 0.11 (-96 ± 19) %; CYP2C19 Efficacy (in parenthesis) (human CYP2C19 [11]; human): 0.17 ± 0.05 (-148 ± 4) %; IC50 (human CYP2C9 [5]; [14]): 0.23 µM; CYP3A4 Efficacy (in parenthesis) (CYP3A4 [6]): 0.06 ± 0.04 (-85 ± 6) %
COc1ccc(S(=O)(=O)N2C(=O)[C@@](c3ccccc3OC)(N3C[C@H](O)C[C@H]3C(=O)N(C)C)c3cc(Cl)ccc32)c(OC)c1 [Nelivaptan]										Inactive	55.1 ± 29.4	44.5 ± 24.6	IC50 (CYP3A4 [1]): 0.07 ± 0.02 µM; CYP2D6 Efficacy (human CYP2D6 [9]; human): 55.12 ± 29.45 (-53 ± 5) %; IC50 (human CYP1A2 [2]): 53.3 ± 25 µM; IC50 (human CYP2C19 [7]): 27.6 ± 19.5 µM

— publication PMC12155096 (International Journal of Molecular Sciences, 2025)
